Experimental data published in patent US20210299286A1, “TETRAZINES FOR HIGH CLICK CONJUGATION YIELD IN VIVO AND HIGH CLICK RELEASE YIELD” (Tagworks Pharmaceuticals B.V., priority 2018, published 2021).
Read-outs that look alike come from different tables or passages of the source.

How the values were obtained:
CC49-TCO-Dox [1] = assay: In vitro Dox release from CC49-TCO-Dox in PBS; format: biochemical
Description: (§1) Doxorubicin (Dox) release from the TCO-linked ADC CC49-TCO-Dox with various TZ activators in PBS and 50% mouse serum at 37° C. was evaluated in vitro as described in Rossin et al. Bioconjug. […] The results of these experiments are depicted in Tables 3 (PBS) and 4 (mouse serum). The release reactions were performed in triplicate unless otherwise stated in the result table.

CC49-TCO-Dox [2] = assay: In vitro Dox release from CC49-TCO-Dox in 50% mouse serum; format: biochemical
Description: as §1

AVP0458-TCO-MMAE = assay: MMAE release from diabody ADC with D8-MMAE internal standard (LC-SIM-MS); format: biochemical; settings: 10 equiv of tetrazine, PBS/plasma (1/1), 37° C., after 24 h, n=3
Description: In an alternative method MMAE release from diabody ADC (AVP0458-TCO-MMAE) was determined by using a deuterated internal standard D8-MMAE. ADC (1.1×10^−10 moles bound MMAE) and D8-MMAE (1.1×10^−10 moles) and 10 equiv of tetrazine were incubated in 100 uL PBS/plasma (1/1) at 37° C.

[3] = tested on: LS174T human colon carcinoma cells; assay: Cell proliferation (MTT) assay of ADCs with range of tetrazines; format: cell-based; settings: 3-day incubation; for cell growth inhibition, combination of ADC and activator: CC49-TCO-Dox 0.1 μM or AVP0458-TCO-MMAE 1 nM plus activator 1 μM; for cell growth inhibition, activators alone: activator 1 μM alone
Description: Cell proliferation was assessed after a 3-day incubation by means of an MTT assay and was expressed as the % of that obtained without treatment.

[4] = Remark on stability of the free base; format: physicochemical; settings: intramolecular nucleophilic attack by the amine
[5] = In vitro tetrazine stability (decrease of UV absorbance at 520 nm); format: physicochemical; settings: read-out: In vitro tetrazine stability (h), t1/2 (converted)
Description: The stability of tetrazines was evaluated by dissolving them in 10% MeCN/PBS at 37° C. and following the decrease of the tetrazine UV absorbance at 520 nm in time (Table 4).

[6] = Second-order reaction rate constant with TCO derivative by UV spectroscopy; format: physicochemical; settings: 25% MeCN/PBS at 20° C.
Description: The second-order reaction rate constants were calculated from the rate at which the absorption at 520 nm (specific for the TZ moiety) decreased (Table 4).

With “3,6-dimethyl-1,2,4,5-tetrazine functional dextran [Compound 2.2]” the “In vitro Dox release (%) from CC49-Dox at 37° C. in PBS: 1 h” value (“In vitro Dox release (%) … in PBS: 1 h” below) (CC49-TCO-Dox [1]) was 44.9%, the “In vitro Dox release (%) from CC49-Dox at 37° C. in PBS: 2 h” value (“In vitro Dox release (%) … in PBS: 2 h” below) (CC49-TCO-Dox [1]) was 51.3% and the “In vitro Dox release (%) from CC49-Dox at 37° C. in PBS: 3 h” value (“In vitro Dox release (%) … in PBS: 3 h” below) (CC49-TCO-Dox [1]) was 54.6%. The “In vitro Dox release (%) from CC49-Dox at 37° C. in PBS: 24 h” value (“In vitro Dox release (%) … 24 h” below) (CC49-TCO-Dox [1]) was 62.3%, the “In vitro Dox release (%) from CC49-Dox at 37° C. in 50% mouse serum: 1 h” value (“In vitro Dox release … in 50% mouse serum: 1 h” for short) (CC49-TCO-Dox [2]) was 34.0 ± 1.2% and the “In vitro Dox release (%) from CC49-Dox at 37° C. in 50% mouse serum: 2 h” value (“In vitro Dox release … in 50% mouse serum: 2 h” for short) (CC49-TCO-Dox [2]) was 43.4 ± 1.5%. The “In vitro Dox release (%) from CC49-Dox at 37° C. in 50% mouse serum: 3 h” value (“In vitro Dox release … in 50% mouse serum: 3 h” for short) (CC49-TCO-Dox [2]) was 48.6 ± 1.2%.

In the case of “3-(pyridin-2-yl)-6-methyl-1,2,4,5-tetrazine functional dextran [Compound 3.2]”, the “In vitro Dox release (%) … in PBS: 1 h” value (CC49-TCO-Dox [1]) was 44.3%, the “In vitro Dox release (%) … in PBS: 2 h” value (CC49-TCO-Dox [1]) was 44.7% and the “In vitro Dox release (%) … in PBS: 3 h” value (CC49-TCO-Dox [1]) was 47.5%. For the same compound, the “In vitro Dox release (%) … 24 h” value (CC49-TCO-Dox [1]) was 45.0%, the “In vitro Dox release … in 50% mouse serum: 1 h” value (CC49-TCO-Dox [2]) was 36.1 ± 0.1% and the “In vitro Dox release … in 50% mouse serum: 2 h” value (CC49-TCO-Dox [2]) was 39.8 ± 0.2%. The “In vitro Dox release … in 50% mouse serum: 3 h” value (CC49-TCO-Dox [2]) was 42.0 ± 0.4%.

In the case of Cc1nnc(-c2ccccn2)nn1 [Compound 3.1, 3-(2-pyridyl)-6-methyl-1,2,4,5-tetrazine], the “In vitro Dox release (%) … in PBS: 1 h” value (CC49-TCO-Dox [1]) was 55.1%, the “In vitro Dox release (%) … in PBS: 2 h” value (CC49-TCO-Dox [1]) was 55.9% and the “In vitro Dox release (%) … in PBS: 3 h” value (CC49-TCO-Dox [1]) was 58.9%. For the same compound, the “In vitro Dox release (%) … 24 h” value (CC49-TCO-Dox [1]) was 59.6%, the “In vitro Dox release … in 50% mouse serum: 1 h” value (CC49-TCO-Dox [2]) was 53.8 ± 1.7% and the “In vitro Dox release … in 50% mouse serum: 2 h” value (CC49-TCO-Dox [2]) was 57.1 ± 1.8%. For the same compound, the “In vitro Dox release … in 50% mouse serum: 3 h” value (CC49-TCO-Dox [2]) was 59.6 ± 2.0%.

With Cc1nnc(-c2ccc(NC(=O)CCCC(=O)NCCOCCOCCOCCOCCOCCOCCOCCOCCOCCOCCOCCNC(=O)CN3CCN(CC(=O)O)CCN(CC(=O)O)CCN(CC(=O)O)CC3)cn2)nn1 [Compound 3.4, 2,2′,2″-(10-(44-((6-(6-methyl-1,2,4,5-tetrazin-3-yl)pyridin-3-yl)amino)-2,40,44-trioxo-6,9,12,15,18,21,24,27,30,33,36-undecaoxa-3,39-diazatetratetracontyl)-1,4,7,10-tetraazacyclododecane-1,4,7-triyl)triacetic acid] the “induced MMAE release (%) from AVP0458-TCO-MMAE” value (“induced MMAE release (%)” for short) (AVP0458-TCO-MMAE) was 47 ± 0.3%, the “cell growth inhibition, combination of ADC and activator” value (from here on “cell growth inhibition, combination”) [3] was “growth inhibition approached that achieved with the corresponding amount of free drug” and the “cell growth inhibition, activators alone” value [3] was “minimal cell growth inhibition”.

With NCCCc1nnc(-c2ncccn2)nn1 [Compound 4.6] the “stability in free base form” value [4] was “highly unstable”.

For Cc1nnc(-c2nccc(CNC(=O)OC(C)(C)C)n2)nn1 [Compound 4.17], the half-life ([5]; 10% MeCN/PBS) was 12 h, the “reactivity (k2)” value [6] was 412 M⁻¹ s⁻¹ and the “induced MMAE release (%)” value (AVP0458-TCO-MMAE) was 70 ± 0.1%.

For Cc1nnc(-c2cnccn2)nn1 [Compound 4.18], the half-life ([5]; 10% MeCN/PBS) was 16 h, the “reactivity (k2)” value [6] was 150 M⁻¹ s⁻¹ and the “induced MMAE release (%)” value (AVP0458-TCO-MMAE) was 55 ± 0.8%.

In the case of Cc1nnc(-c2ccncn2)nn1 [Compound 4.19], the half-life ([5]; buffer) was 1 h, the “reactivity (k2)” value [6] was 290 M⁻¹ s⁻¹ and the “induced MMAE release (%)” value (AVP0458-TCO-MMAE) was 60 ± 0.1%.

With Cc1nnc(-c2nccnc2C)nn1 [Compound 4.20] the half-life ([5]; 10% MeCN/PBS) was 15 h, the “reactivity (k2)” value [6] was 28 M⁻¹ s⁻¹ and the “induced MMAE release (%)” value (AVP0458-TCO-MMAE) was 59 ± 0.3%.

With Cc1nnc(-c2nccc(C(=O)O)n2)nn1 [Compound 4.23] the half-life ([5]; 10% MeCN/PBS) was 6 h, the “reactivity (k2)” value [6] was 246 M⁻¹ s⁻¹ and the “induced MMAE release (%)” value (AVP0458-TCO-MMAE) was 69 ± 0.5%.

For COCCOCCOCCOCCOCCOCCOCCOCCOCCOCCOCC(=O)NCCCc1nnc(-c2ncccn2)nn1 [Compound 4.24], the half-life ([5]; 10% MeCN/PBS) was 13 h.

With Cc1nnc(-c2nccc(CNC(=O)CN(CCN(CC(=O)O)CC(=O)O)CC(=O)O)n2)nn1 [Compound 4.26] the half-life ([5]; 10% MeCN/PBS) was 13 h, the “reactivity (k2)” value [6] was 135 M⁻¹ s⁻¹ and the “induced MMAE release (%)” value (AVP0458-TCO-MMAE) was 59 ± 0.6%. The “cell growth inhibition, combination” value [3] was “growth inhibition approached that achieved with the corresponding amount of free drug” and the “cell growth inhibition, activators alone” value [3] was “minimal cell growth inhibition”.

For Cc1nnc(-c2nccc(CNC(=O)CCCC(=O)O)n2)nn1 [Compound 4.27], the “induced MMAE release (%)” value (AVP0458-TCO-MMAE) was 66 ± 0.5%.

In the case of CN(CCc1nnc(-c2ncccn2)nn1)C(=O)N1CCN(C(=O)c2ccc(F)cc2)CC1 [Compound 4.33, 4-(4-fluorobenzoyl)-N-methyl-N-(2-(6-(pyrimidin-2-yl)-1,2,4,5-tetrazin-3-yl)ethyl)piperazine-1-carboxamide], the “induced MMAE release (%)” value (AVP0458-TCO-MMAE) was 53 ± 0.6%, the “cell growth inhibition, combination” value [3] was “growth inhibition approached that achieved with the corresponding amount of free drug” and the “cell growth inhibition, activators alone” value [3] was “minimal cell growth inhibition”.

With CN(CCc1nnc(-c2ncccn2)nn1)C(=O)c1ccc(F)cc1 [Compound 4.35, 4-fluoro-N-methyl-N-(2-(6-(pyrimidin-2-yl)-1,2,4,5-tetrazin-3-yl)ethyl)benzamide] the “induced MMAE release (%)” value (AVP0458-TCO-MMAE) was 67 ± 0.1%, the “cell growth inhibition, combination” value [3] was “growth inhibition approached that achieved with the corresponding amount of free drug” and the “cell growth inhibition, activators alone” value [3] was “minimal cell growth inhibition”.

With O=C(O)CN1CCN(CC(=O)O)CCN(CC(=O)NCCOCCOCCOCCOCCOCCOCCOCCOCCOCCOCCOCCNC(=O)CCCC(=O)Nc2ccc(-c3nnc(-c4ccccn4)nn3)nc2)CCN(CC(=O)O)CC1 [Compound 5.1, 2,2′,2″-(10-(2,40,44-Trioxo-44-((6-(6-(pyridine-2-yl)-1,2,4,5-tetrazin-3-yl)pyridine-3-yl)amino)-6,9,12,15,18,21,24,27,30,33,36-undecaoxa-3,39-diazatetratetracontyl)-1,4,7,10-tetraazacyclododecane-1,4,7-triyl)triacetic acid] the “In vitro Dox release (%) … in PBS: 1 h” value (CC49-TCO-Dox [1]) was 14.2%, the “In vitro Dox release (%) … in PBS: 2 h” value (CC49-TCO-Dox [1]) was 20.4% and the “In vitro Dox release (%) … in PBS: 3 h” value (CC49-TCO-Dox [1]) was 24.3%. The “In vitro Dox release (%) … 24 h” value (CC49-TCO-Dox [1]) was 48.1%, the “In vitro Dox release (%) from CC49-Dox at 37° C. in PBS: 48 h” value (CC49-TCO-Dox [1]) was 54.9% and the “In vitro Dox release … in 50% mouse serum: 1 h” value (CC49-TCO-Dox [2]) was 13.7 ± 0.7%. For the same compound, the “In vitro Dox release … in 50% mouse serum: 2 h” value (CC49-TCO-Dox [2]) was 15.2 ± 1.4% and the “In vitro Dox release … in 50% mouse serum: 3 h” value (CC49-TCO-Dox [2]) was 14.8 ± 0.8%.

With O=C(O)CN1CCN(CC(=O)O)CCN(CC(=O)NCCOCCNC(=O)CCCC(=O)NCCCc2nnc(CCCNC(=O)CCCC(=O)NCCOCCNC(=O)CN3CCN(CC(=O)O)CCN(CC(=O)O)CCN(CC(=O)O)CC3)nn2)CCN(CC(=O)O)CC1 [Compound 5.3, Tz-bis-DOTA] the “In vitro Dox release (%) … in PBS: 1 h” value (CC49-TCO-Dox [1]) was 50.5%, the “In vitro Dox release (%) … in PBS: 2 h” value (CC49-TCO-Dox [1]) was 59.3% and the “In vitro Dox release (%) … in PBS: 3 h” value (CC49-TCO-Dox [1]) was 62.5%. The “In vitro Dox release (%) … 24 h” value (CC49-TCO-Dox [1]) was 80.3%, the “In vitro Dox release (%) from CC49-Dox at 37° C. in PBS: 48 h” value (CC49-TCO-Dox [1]) was 91.2% and the “In vitro Dox release … in 50% mouse serum: 1 h” value (CC49-TCO-Dox [2]) was 43.6 ± 3.5%. The “In vitro Dox release … in 50% mouse serum: 2 h” value (CC49-TCO-Dox [2]) was 54.9 ± 6.0%, the “In vitro Dox release … in 50% mouse serum: 3 h” value (CC49-TCO-Dox [2]) was 64.4 ± 3.3% and the “In vitro Dox release (%) from CC49-Dox at 37° C. in 50% mouse serum: 6 h” value (CC49-TCO-Dox [2]; 6 h) was 67.5 ± 8.3%.

For NCCc1nnc(-c2nccc(CNC(=O)CCCC(=O)O)n2)nn1 [Compound 5.5], the “induced MMAE release (%)” value (AVP0458-TCO-MMAE) was 81 ± 0.4%.

For NCCc1nnc(-c2nccc(CNC(=O)CCCC(=O)NC(CO)(CO)CO)n2)nn1 [Compound 5.8], the “induced MMAE release (%)” value (AVP0458-TCO-MMAE) was 80 ± 0.5%.
